US20100298141A1, “SUBSTITUTED PYRIDINE N-OXIDE HERBICIDES” (E. I. DU PONT DE NEMOURS AND COMPANY, priority 2007, published 2010)

Columns and labels:
morningglory = experiment: Test A pre-/postemergence greenhouse test; format: in vivo, Ipomoea spp.; conditions: for Plant response rating, Morningglory: 0 to 100 scale where 0 is no effect and 100 is complete control; for Morningglory plant response rating: 0 to 100 scale
Procedure, shortened: (§1)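 Pre: directed soil spray on seeded loam/sand. Post: foliar spray, plants 2–10 cm, 1–2 leaf stage, applied concurrently. Vehicle: non-phytotoxic solvent + surfactant. Greenhouse ~10 d; visual injury rating vs untreated controls.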

barnyardgrass [1] = experiment: Test A pre-/postemergence greenhouse test; format: in vivo, Echinochloa crus-galli; conditions: for Plant response rating, Barnyardgrass: 0 to 100 scale where 0 is no effect and 100 is complete control; for Barnyardgrass plant response rating: 0 to 100 scale
Procedure, shortened: as §1

barnyardgrass [2] = experiment: Test C flooded paddy test; format: in vivo, Echinochloa crus-galli; conditions: Flood, scale 0 to 100, 0 no effect, 100 complete control, 13 to 15 days
Procedure, shortened: (§2)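 Compound was added to standing water 3 cm above soil, flood maintained, and plants held in a greenhouse before visual scoring against controls at 13 to 15 days.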

wheat = experiment: Test A pre-/postemergence greenhouse test; format: in vivo, Triticum aestivum; conditions: for Plant response rating, Wheat: 0 to 100 scale where 0 is no effect and 100 is complete control; for Wheat plant response rating: 0 to 100 scale
Procedure, shortened: as §1

rice = experiment: Test C flooded paddy test; format: in vivo, Oryza sativa; conditions: Flood, scale 0 to 100, 0 no effect, 100 complete control, 13 to 15 days
Procedure, shortened: as §2

corn = experiment: Test A pre-/postemergence greenhouse test; format: in vivo, Zea mays; conditions: for Plant response rating, Corn: 0 to 100 scale where 0 is no effect and 100 is complete control; for Corn plant response rating: 0 to 100 scale
Procedure, shortened: as §1

giant foxtail = experiment: Test A pre-/postemergence greenhouse test; format: in vivo, Setaria faberi; conditions: for Plant response rating, Foxtail, Giant: 0 to 100 scale where 0 is no effect and 100 is complete control; for Foxtail, Giant plant response rating: 0 to 100 scale
Procedure, shortened: as §1

umbrella sedge = experiment: Test C flooded paddy test; format: in vivo, Cyperus difformis; conditions: Flood, 250 g ai/ha; scale 0 to 100, 0 no effect, 100 complete control; 13 to 15 days
Procedure, shortened: as §2

velvetleaf = experiment: Test A pre-/postemergence greenhouse test; format: in vivo, Abutilon theophrasti; conditions: for Plant response rating, Velvetleaf: 0 to 100 scale where 0 is no effect and 100 is complete control; for Velvetleaf plant response rating: 0 to 100 scale
Procedure, shortened: as §1

crabgrass = experiment: Test A pre-/postemergence greenhouse test; format: in vivo, Digitaria sanguinalis; conditions: for Plant response rating, Crabgrass, Large: 0 to 100 scale where 0 is no effect and 100 is complete control; for Crabgrass, Large plant response rating: 0 to 100 scale
Procedure, shortened: as §1

duck salad = experiment: Test C flooded paddy test; format: in vivo, Heteranthera limosa; conditions: Flood, scale 0 to 100, 0 no effect, 100 complete control, 13 to 15 days
Procedure, shortened: as §2

redroot pigweed = experiment: Test A pre-/postemergence greenhouse test; format: in vivo, Amaranthus retroflexus; conditions: for Plant response rating, Pigweed: 0 to 100 scale where 0 is no effect and 100 is complete control; for Pigweed plant response rating: 0 to 100 scale
Procedure, shortened: as §1

[3] = Postemergence, 500 g ai/ha, 0 is no effect, 100 is complete control
[4] = Preemergence, 125 g ai/ha, 0 no effect, 100 complete control

Structure (SMILES) | Plant response rating, Morningglory (morningglory; Postemergence, 125 g ai/ha) | Morningglory plant response rating (morningglory; [3]) | Morningglory plant response rating (morningglory; [4]) | Plant response rating, Morningglory (morningglory; Preemergence, 500 g ai/ha) | Plant response rating, Barnyardgrass (barnyardgrass [1]; Postemergence, 125 g ai/ha) | Barnyardgrass plant response rating (barnyardgrass [1]; [3]) | Barnyardgrass plant response rating (barnyardgrass [1]; [4]) | Plant response rating, Barnyardgrass (barnyardgrass [1]; Preemergence, 500 g ai/ha) | Plant response rating, Barnyardgrass (barnyardgrass [2]; 62 g ai/ha) | Plant response rating, Barnyardgrass (barnyardgrass [2]; 250 g ai/ha) | Plant response rating, Wheat (wheat; Postemergence, 125 g ai/ha) | Wheat plant response rating (wheat; [3]) | Wheat plant response rating (wheat; [4]) | Plant response rating, Wheat (wheat; Preemergence, 500 g ai/ha) | Plant response rating, Rice (rice; 62 g ai/ha) | Plant response rating, Rice (rice; 250 g ai/ha) | Plant response rating, Corn (corn; Postemergence, 125 g ai/ha) | Corn plant response rating (corn; [3]) | Corn plant response rating (corn; [4]) | Plant response rating, Corn (corn; Preemergence, 500 g ai/ha) | other results
Cc1cc[n+]([O-])c(S(=O)(=O)Cc2c(C(F)(F)F)nn(CC(F)(F)F)c2Cl)c1 [Compound 49] | 0 | 0 | 30 | 30 | 40 | 70 | 70 | 90 | 0 | 0 | 0 | 0 | 0 | 30 | 0 | 0 | 0 | 0 | 0 | 0 | Plant response rating, Foxtail, Giant (giant foxtail; Postemergence, 125 g ai/ha): 40; Foxtail, Giant plant response rating (giant foxtail; [3]): 70; Foxtail, Giant plant response rating (giant foxtail; [4]): 80; Plant response rating, Foxtail, Giant (giant foxtail; Preemergence, 500 g ai/ha): 90; Plant response rating, Sedge, Umbrella (umbrella sedge): 10; Plant response rating, Velvetleaf (velvetleaf; Postemergence, 125 g ai/ha): 20; Velvetleaf plant response rating (velvetleaf; [3]): 30; Velvetleaf plant response rating (velvetleaf; [4]): 0; Plant response rating, Velvetleaf (velvetleaf; Preemergence, 500 g ai/ha): 40; Plant response rating, Crabgrass, Large (crabgrass; Postemergence, 125 g ai/ha): 30; Crabgrass, Large plant response rating (crabgrass; [3]): 70; Crabgrass, Large plant response rating (crabgrass; [4]): 70; Plant response rating, Crabgrass, Large (crabgrass; Preemergence, 500 g ai/ha): 90; Plant response rating, Ducksalad (duck salad; 62 g ai/ha): 0; Plant response rating, Ducksalad (duck salad; 250 g ai/ha): 0; Plant response rating, Pigweed (redroot pigweed; Postemergence, 125 g ai/ha): 0; Pigweed plant response rating (redroot pigweed; [3]): 10; Pigweed plant response rating (redroot pigweed; [4]): 80; Plant response rating, Pigweed (redroot pigweed; Preemergence, 500 g ai/ha): 100
Cc1cc[n+]([O-])c([S+]([O-])Cc2c(C(F)(F)F)nn(CC(F)(F)F)c2Cl)c1 (stereo not drawn) [Compound 48] | 30 | 50 | 40 | 80 | 40 | 70 | 50 | 90 | 0 | 0 | 0 | 50 | 20 | 80 | 0 | 25 | 0 | 50 | 0 | 60 | Plant response rating, Foxtail, Giant (giant foxtail; Postemergence, 125 g ai/ha): 70; Foxtail, Giant plant response rating (giant foxtail; [3]): 80; Foxtail, Giant plant response rating (giant foxtail; [4]): 80; Plant response rating, Foxtail, Giant (giant foxtail; Preemergence, 500 g ai/ha): 90; Plant response rating, Sedge, Umbrella (umbrella sedge): 50; Plant response rating, Velvetleaf (velvetleaf; Postemergence, 125 g ai/ha): 0; Velvetleaf plant response rating (velvetleaf; [3]): 40; Velvetleaf plant response rating (velvetleaf; [4]): 0; Plant response rating, Velvetleaf (velvetleaf; Preemergence, 500 g ai/ha): 60; Plant response rating, Crabgrass, Large (crabgrass; Postemergence, 125 g ai/ha): 50; Crabgrass, Large plant response rating (crabgrass; [3]): 70; Crabgrass, Large plant response rating (crabgrass; [4]): 70; Plant response rating, Crabgrass, Large (crabgrass; Preemergence, 500 g ai/ha): 90; Plant response rating, Ducksalad (duck salad; 62 g ai/ha): 0; Plant response rating, Ducksalad (duck salad; 250 g ai/ha): 25; Plant response rating, Pigweed (redroot pigweed; Postemergence, 125 g ai/ha): 50; Pigweed plant response rating (redroot pigweed; [3]): 60; Pigweed plant response rating (redroot pigweed; [4]): 70; Plant response rating, Pigweed (redroot pigweed; Preemergence, 500 g ai/ha): 100
